Reference: US7132504B2, “Hepatitis C virus inhibitors” (Bristol-Myers Squibb Company, priority 2003, dated 2006)
Like-named read-outs stand apart in the source and are kept apart here.

Tests used:
[1] = test system: HCV replicon in Huh7 cells; experiment: HCV replicon cell-based assay (FRET); parameters: species or system HCV strain 1b; conditions: Hepatitis C virus
Text: An HCV replicon whole cell system was established as described by Lohmann V, Korner F, Koch J, Herian U, Theilmann L, Bartenschlager R., Science 285(5424):110–3 (1999). This system enabled us to evaluate the effects of our HCV Protease compounds on HCV RNA replication. Briefly, using the HCV strain 1b sequence described in the Lohmann paper (Assession number:AJ238799), an HCV cDNA was generated encoding the 5′ internal ribosome entry site (IRES), the neomycin resistance gene, the EMCV (encephalomyocarditis viurs)-IRES and the HCV nonstructural proteins, NS3–NS5B, and 3′ non-translated region (NTR). In vitro transcripts of the cDNA were transfected into the human hepatoma cell line, Huh7. […] Resulting cell lines were characterized for positive and negative strand RNA production and protein production over time.
Huh7 cells, constitutively expressing the HCV replicon, were grown in Dulbecco's Modified Eagle Media (DMEM) containing 10% Fetal calf serum (FCS) and 1 mg/ml G418 (Gibco-BRL). Cells were seeded the night before (1.5×10^4 cells/well) in 96-well tissue-culture sterile plates. Compound and no compound controls were prepared in DMEM containing 4% FCS, 1:100 Penicillin/Streptomysin, 1:100 L-glutamine and 5% DMSO in the dilution plate (0.5% DMSO final concentration in the assay). Compound/DMSO mixes were added to the cells and incubated for 4 days at 37° C. After 4 days, plates were rinsed thoroughly with Phosphate-Buffered Saline (PBS) (3 times 150 μl). The cells were lysed with 25 μl of a lysis assay reagent containing the FRET peptide (RET S1, as described for the in vitro enzyme assay). The lysis assay reagent was made from 5× cell Luciferase cell culture lysis reagent (Promega #E153A) diluted to 1× with distilled water, NaCl added to 150 mM final, the FRET peptide diluted to 10 μM final from a 2 mM stock in 100% DMSO. The plate was then placed into the Cytofluor 4000 instrument which had been set to 340 nm excitation/490 nm emission, automatic mode for 21 cycles and the plate read in a kinetic mode. EC50 determinations were carried out as described for the IC50 determinations. […]
The percentage inhibition was calculated using the formula below: […]
The values were graphed and analyzed using XLFit to obtain the EC50 value.

[2] = target: T1, human neutrophil elastase (HNE) (Homo sapiens, UniProt P08246); experiment: Specificity assay, human neutrophil elastase; type: biochemical; conditions: 2 h enzyme-inhibitor pre-incubation
T1 construct: purchased Sigma
T1 sequence (P08246 30-267): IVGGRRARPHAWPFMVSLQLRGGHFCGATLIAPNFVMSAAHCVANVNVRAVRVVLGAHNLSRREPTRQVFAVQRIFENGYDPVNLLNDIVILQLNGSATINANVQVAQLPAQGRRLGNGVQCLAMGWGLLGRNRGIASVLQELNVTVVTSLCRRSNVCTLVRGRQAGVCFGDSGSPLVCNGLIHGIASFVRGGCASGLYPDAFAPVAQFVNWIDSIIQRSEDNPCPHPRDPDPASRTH
Description: The specificities of compounds of the present invention were determined against a variety of serine proteases: human neutrophil elastase (HNE), porcine pancreatic elastase (PPE) and human pancreatic chymotrypsin and one cysteine protease: human liver cathepsin B. In all cases a 96-well plate format protocol using colorimetric p-nitroaniline (pNA) substrate specific for each enzyme was used as described previously (PCT Patent Application No. WO 00/09543) with some modifications to the serine protease assays. All enzymes were purchased from Sigma while the substrates were from Bachem.
Each assay included a 2 h enzyme-inhibitor pre-incubation at room temperature followed by addition of substrate and hydrolysis to ˜30% conversion as measured on a Spectramax Pro microplate reader. Compound concentrations varied from 100 to 0.4 μM depending on their potency. […]
The percentage of inhibition was calculated using the formula: [1−((UVinh−UVblank)/(UVctl−UVblank))]×100 […]

In the case of `C=CC1C[C@]1(NC(=O)[C@@H]1C[C@@H](Oc2cc(-c3ccccc3)nc3cc(OC)ccc23)CN1C(=O)[C@@H](NC(=O)OC)C(C)(C)C)C(=O)NS(=O)(=O)N(C)Cc1ccccc1` (stereo partly drawn) [Compound 9], the EC50 ([1]; Huh-7, 96 h, 4 days, read-out: Activity Range EC50) is reported as 150 to 1500 nM, the EC50 ([1]; Huh-7, read-out: EC50 value in the replicon assay) is reported as 403 nM and the IC50 [2] is reported as 46000 nM.
